Data taken from patent US12473304B2, “Heterocyclic PAD4 inhibitors” (BRISTOL-MYERS SQUIBB COMPANY, priority 2020, dated 2025).

Biological target: human PAD4 (hPAD4) (Homo sapiens (Human), UniProt Q9UM07)
Assay: RFMS Human PAD4 Functional Assay 1
Assay type: biochemical
Conditions: RFMS assay 1; 5 nM hPAD4, 250 μM BAEE substrate, 50 μM calcium, 37° C.
Outline: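 Recombinant hPAD4 (5 nM) was preincubated with compound (top 50 μM, 0.5% DMSO) for 30 min at 37 °C, then reacted with 250 μM BAEE for 90 min at 37 °C in pH 7.5 HEPES buffer with 50 μM calcium and 5 μM TPEN. Product was derivatized with phenyl glyoxal and quantified by RapidFire MS.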

Chain of human PAD4 (hPAD4) (Q9UM07 whole entry): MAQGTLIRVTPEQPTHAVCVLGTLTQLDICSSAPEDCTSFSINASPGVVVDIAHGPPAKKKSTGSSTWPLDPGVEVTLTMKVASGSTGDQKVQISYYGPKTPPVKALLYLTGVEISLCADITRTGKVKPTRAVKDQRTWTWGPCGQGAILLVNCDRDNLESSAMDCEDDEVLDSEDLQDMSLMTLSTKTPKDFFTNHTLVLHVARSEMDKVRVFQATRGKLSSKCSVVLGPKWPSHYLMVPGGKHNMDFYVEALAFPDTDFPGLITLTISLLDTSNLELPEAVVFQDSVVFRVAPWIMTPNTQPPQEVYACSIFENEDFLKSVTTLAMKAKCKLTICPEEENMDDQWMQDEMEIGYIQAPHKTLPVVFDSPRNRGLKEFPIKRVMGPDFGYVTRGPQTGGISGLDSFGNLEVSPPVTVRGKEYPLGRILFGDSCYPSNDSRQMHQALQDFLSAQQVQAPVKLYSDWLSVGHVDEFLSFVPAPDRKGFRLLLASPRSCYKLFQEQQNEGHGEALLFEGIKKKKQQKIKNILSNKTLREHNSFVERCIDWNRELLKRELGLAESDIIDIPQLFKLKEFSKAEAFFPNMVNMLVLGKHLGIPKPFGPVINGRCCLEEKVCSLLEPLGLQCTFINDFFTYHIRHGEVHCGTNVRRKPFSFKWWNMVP

| Compound | IC50 |
| --- | --- |
| COc1cc(C(=O)N2CCC[C@@H](N)C2)cn2nc(-c3cc4ccc(-c5ccc(CNS(C)(=O)=O)cc5)cc4n3CC3CC3)c(C)c12 [Example 234, N-{[4-(2-{6-[(3R)-3-Aminopiperidine-1-carbonyl]-4-methoxy-3-methylpyrazolo[1,5-a]pyridin-2-yl}-1-(cyclopropylmethyl)-1H-indol-6-yl)phenyl]methyl}methanesulfonamide] | 1140 nM |
| COc1cc(C(=O)N2CCC[C@@H](N)C2)cn2nc(-c3cc4ccc(-c5cccc(CNS(C)(=O)=O)c5)cc4n3CC3CC3)c(C)c12 [Example 235, N-{[3-(2-{6-[(3R)-3-Aminopiperidine-1-carbonyl]-4-methoxy-3-methylpyrazolo[1,5-a]pyridin-2-yl}-1-(cyclopropylmethyl)-1H-indol-6-yl)phenyl]methyl}methanesulfonamide] | 250 nM |
| COc1cc(C(=O)N2CCC[C@@H](N)C2)cn2nc(-c3cc4ccc(-c5ccccc5C(N)=O)cc4n3CC3CC3)c(C)c12 [Example 237, 2-(2-{6-[(3R)-3-Aminopiperidine-1-carbonyl]-4-methoxy-3-methylpyrazolo[1,5-a]pyridin-2-yl}-1-(cyclopropylmethyl)-1H-indol-6-yl)benzamide] | 250 nM |
| COc1cc(C(=O)N2CCC[C@@H](N)C2)cn2nc(-c3cc4ccc(-c5cccc6[nH]ncc56)cc4n3CC3CC3)c(C)c12 [Example 238, (3R)-1-{2-[1-(Cyclopropylmethyl)-6-(1H-indazol-4-yl)-1H-indol-2-yl]-4-methoxy-3-methylpyrazolo[1,5-a]pyridine-6-carbonyl}piperidin-3-amine] | 420 nM |
| COc1cc(C(=O)N2CCC[C@@H](N)C2)cn2nc(-c3cc4ccc(-c5cc(F)c6[nH]c(=O)ccc6c5C)cc4n3CC3CC3)c(C)c12 [Example 239, 6-(2-{6-[(3R)-3-Aminopiperidine-1-carbonyl]-4-methoxy-3-methylpyrazolo[1,5-a]pyridin-2-yl}-1-(cyclopropylmethyl)-1H-indol-6-yl)-8-fluoro-5-methyl-1,2-dihydroquinolin-2-one] | 70 nM |
| COc1cc(C(=O)N2CCC[C@@H](N)C2)cn2nc(-c3cc4ccc(-c5ccc(NC(C)=O)nc5)cc4n3CC3CC3)c(C)c12 [Example 240, N-[5-(2-{6-[(3R)-3-Aminopiperidine-1-carbonyl]-4-methoxy-3-methylpyrazolo[1,5-a]pyridin-2-yl}-1-(cyclopropylmethyl)-1H-indol-6-yl)pyridin-2-yl]acetamide] | 180 nM |
| COc1cc(C(=O)N2C[C@H](N)C[C@@H](F)C2)cn2nc(-c3cc4ccc(N5CCC(C(=O)N(C)C)CC5)cc4n3CC3CC3)c(C)c12 [Example 242, 1-(2-{6-[(3R,5R)-3-Amino-5-fluoropiperidine-1-carbonyl]-4-methoxy-3-methylpyrazolo[1,5-a]pyridin-2-yl}-1-(cyclopropylmethyl)-1H-indol-6-yl)-N,N-dimethylpiperidine-4-carboxamide] | 90 nM |
| COc1cc(C(=O)N2C[C@H](N)C[C@@H](F)C2)cn2nc(-c3cc4ccc(N5CCC(N(C)C(C)=O)CC5)cc4n3CC3CC3)c(C)c12 [Example 243, N-[1-(2-{6-[(3R,5R)-3-Amino-5-fluoropiperidine-1-carbonyl]-4-methoxy-3-methylpyrazolo[1,5-a]pyridin-2-yl}-1-(cyclopropylmethyl)-1H-indol-6-yl)piperidin-4-yl]-N-methylacetamide] | 4120 nM |
| COc1cc(C(=O)N2C[C@H](N)C[C@@H](F)C2)cn2nc(-c3cc4ccc(N5CCC(N(C)C(C)=O)CC5)cc4n3CC3CC3)c(C)c12 [Example 244, N-[1-(2-{6-[(3R,5R)-3-Amino-5-fluoropiperidine-1-carbonyl]-4-methoxy-3-methylpyrazolo[1,5-a]pyridin-2-yl}-1-(cyclopropylmethyl)-1H-indol-6-yl)piperidin-4-yl]-N-methylacetamide] | 70 nM |
| COC(=O)N(C)C1CCN(c2ccc3cc(-c4nn5cc(C(=O)N6C[C@H](N)C[C@@H](F)C6)cc(OC)c5c4C)n(CC4CC4)c3c2)CC1 [Example 245, Methyl N-[1-(2-{6-[(3R,5R)-3-amino-5-fluoropiperidine-1-carbonyl]-4-methoxy-3-methylpyrazolo[1,5-a]pyridin-2-yl}-1-(cyclopropylmethyl)-1H-indol-6-yl)piperidin-4-yl]-N-methylcarbamate] | 70 nM |
| COc1cc(C(=O)N2C[C@H](N)C[C@@H](F)C2)cn2nc(-c3cc4ccc(N5CCC(N(C)S(C)(=O)=O)CC5)cc4n3CC3CC3)c(C)c12 [Example 246, N-[1-(2-{6-[(3R,5R)-3-Amino-5-fluoropiperidine-1-carbonyl]-4-methoxy-3-methylpyrazolo[1,5-a]pyridin-2-yl}-1-(cyclopropylmethyl)-1H-indol-6-yl)piperidin-4-yl]-N-methylmethanesulfonamide] | 130 nM |
| COc1cc(C(=O)N2C[C@H](N)C[C@@H](F)C2)cn2nc(-c3cc4ccc(N5CC(N(C)S(C)(=O)=O)C5)cc4n3CC3CC3)c(C)c12 [Example 247, N-[1-(2-{6-[(3R,5R)-3-Amino-5-fluoropiperidine-1-carbonyl]-4-methoxy-3-methylpyrazolo[1,5-a]pyridin-2-yl}-1-(cyclopropylmethyl)-1H-indol-6-yl)azetidin-3-yl]-N-methylmethanesulfonamide] | 120 nM |
| COc1cc(C(=O)N2CCC[C@@H](N)C2)cn2nc(-c3cc4ccc(N5CCC(S(C)(=O)=O)CC5)cc4n3CC3CC3)c(C)c12 [Example 248, (3R)-1-{2-[1-(Cyclopropylmethyl)-6-(4-methanesulfonylpiperidin-1-yl)-1H-indol-2-yl]-4-methoxy-3-methylpyrazolo[1,5-a]pyridine-6-carbonyl}piperidin-3-amine] | 60 nM |
| COc1cc(C(=O)N2CCC[C@@H](N)C2)cn2nc(-c3cc4ccc(N5CCC(OC)CC5)cc4n3CC3CC3)c(C)c12 [Example 249, (3R)-1-{2-[1-(Cyclopropylmethyl)-6-(4-methoxypiperidin-1-yl)-1H-indol-2-yl]-4-methoxy-3-methylpyrazolo[1,5-a]pyridine-6-carbonyl}piperidin-3-amine] | 80 nM |
| COc1cc(C(=O)N2CCC[C@@H](N)C2)cn2nc(-c3cc4ccc(N5CCC(CC(=O)N(C)C)CC5)cc4n3CC3CC3)c(C)c12 [Example 250, 2-[1-(2-{6-[(3R)-3-Aminopiperidine-1-carbonyl]-4-methoxy-3-methylpyrazolo[1,5-a]pyridin-2-yl}-1-(cyclopropylmethyl)-1H-indol-6-yl)piperidin-4-yl]-N,N-dimethylacetamide] | 90 nM |
| COc1cc(C(=O)N2CCC[C@@H](N)C2)cn2nc(-c3cc4ccc(N5CCC(C(=O)N6CC(OC)C6)CC5)cc4n3CC3CC3)c(C)c12 [Example 251, (3R)-1-{2-[1-(Cyclopropylmethyl)-6-[4-(3-methoxyazetidine-1-carbonyl)piperidin-1-yl]-1H-indol-2-yl]-4-methoxy-3-methylpyrazolo[1,5-a]pyridine-6-carbonyl}piperidin-3-amine] | 180 nM |
| COc1cc(C(=O)N2CCC[C@@H](N)C2)cn2nc(-c3cc4ccc(N5CCC(N(C)C(C)=O)CC5)cc4n3CC3CC3)c(C)c12 [Example 252, N-[1-(2-{6-[(3R)-3-Aminopiperidine-1-carbonyl]-4-methoxy-3-methylpyrazolo[1,5-a]pyridin-2-yl}-1-(cyclopropylmethyl)-1H-indol-6-yl)piperidin-4-yl]-N-methylacetamide] | 790 nM |
| COc1cc(C(=O)N2CCC[C@@H](N)C2)cn2nc(-c3cc4ccc(N5CCC(N(C)C(C)=O)CC5)cc4n3CC3CC3)c(C)c12 [Example 253, N-[1-(2-{6-[(3R)-3-Aminopiperidine-1-carbonyl]-4-methoxy-3-methylpyrazolo[1,5-a]pyridin-2-yl}-1-(cyclopropylmethyl)-1H-indol-6-yl)piperidin-4-yl]-N-methylacetamide] | 290 nM |
| COc1cc(C(=O)N2CCC[C@@H](N)C2)cn2nc(-c3cc4ccc(N5CCC(N(C)S(C)(=O)=O)CC5)cc4n3CC3CC3)c(C)c12 [Example 254, N-[1-(2-{6-[(3R)-3-Aminopiperidine-1-carbonyl]-4-methoxy-3-methylpyrazolo[1,5-a]pyridin-2-yl}-1-(cyclopropylmethyl)-1H-indol-6-yl)piperidin-4-yl]-N-methylmethanesulfonamide] | 320 nM |
| COC(=O)N(C)C1CCN(c2ccc3cc(-c4nn5cc(C(=O)N6CCC[C@@H](N)C6)cc(OC)c5c4C)n(CC4CC4)c3c2)CC1 [Example 255, Methyl N-[1-(2-{6-[(3R)-3-aminopiperidine-1-carbonyl]-4-methoxy-3-methylpyrazolo[1,5-a]pyridin-2-yl}-1-(cyclopropylmethyl)-1H-indol-6-yl)piperidin-4-yl]-N-methylcarbamate] | 250 nM |
| COc1cc(C(=O)N2CCC[C@@H](N)C2)cn2nc(-c3cc4ccc(N5CC(N(C)S(C)(=O)=O)C5)cc4n3CC3CC3)c(C)c12 [Example 256, N-[1-(2-{6-[(3R)-3-Aminopiperidine-1-carbonyl]-4-methoxy-3-methylpyrazolo[1,5-a]pyridin-2-yl}-1-(cyclopropylmethyl)-1H-indol-6-yl)azetidin-3-yl]-N-methylmethanesulfonamide] | 330 nM |
| Cc1c(-c2cc3ccc(-c4ccccc4N4CCNC4=O)nc3n2CC2CC2)nn2cc(C(=O)N3CC4CCC3[C@@H]4N)cc(F)c12 (stereo partly drawn) [Example 257, 1-[2-(2-{6-[(7R)-7-Amino-2-azabicyclo[2.2.1]heptane-2-carbonyl]-4-fluoro-3-methylpyrazolo[1,5-a]pyridin-2-yl}-1-(cyclopropylmethyl)-1H-pyrrolo[2,3-b]pyridin-6-yl)phenyl]imidazolidin-2-one] | 60 nM |
| Cc1c(-c2cc3ccc(-c4ccc(N5CCCC5=O)cc4)nc3n2CC2CC2)nn2cc(C(=O)N3CC4CCC3[C@@H]4N)cc(F)c12 (stereo partly drawn) [Example 258, 1-[4-(2-{6-[(7R)-7-Amino-2-azabicyclo[2.2.1]heptane-2-carbonyl]-4-fluoro-3-methylpyrazolo[1,5-a]pyridin-2-yl}-1-(cyclopropylmethyl)-1H-pyrrolo[2,3-b]pyridin-6-yl)phenyl]pyrrolidin-2-one] | 220 nM |
